From the NIST ThermoML archive (doi:10.1021/acs.jced.5b00654)
Several values for one entry are separate records, joined by “and”; a condition that tells them apart may be missing. Identical values can stand only once. Numbers after ± are expanded uncertainties.

Conditions: Fluid (supercritical or subcritical phases); for mass density: Buoyancy - hydrostatic balance with magnetic suspension - one sinker; for viscosity: Vibrating wire viscometry

CCCC [butane]
Conditions | mass density | viscosity
298.11 K, 162.81 kPa | 4.0157 ± 0.019 kg/m3 | 0.007353 ± 0.00083 mPa·s
298.11 K, 162.82 kPa | 4.016 ± 0.019 kg/m3 | 0.007354 ± 0.00083 mPa·s
298.12 K, 142.16 kPa | 3.4823 ± 0.018 kg/m3 | 0.007359 ± 0.00083 mPa·s
298.12 K, 221.35 kPa | 5.5716 ± 0.022 kg/m3 | 0.007333 ± 0.00083 mPa·s
298.12 K, 221.39 kPa | 5.5728 ± 0.022 kg/m3 | 0.007334 ± 0.00083 mPa·s
298.13 K, 123.43 kPa | 3.0049 ± 0.018 kg/m3 | 0.007365 ± 0.00083 mPa·s
298.13 K, 123.44 kPa | 3.0052 ± 0.018 kg/m3 | 0.007363 ± 0.00083 mPa·s
298.13 K, 142.17 kPa | 3.4826 ± 0.019 kg/m3 | 0.007359 ± 0.00083 mPa·s
298.14 K, 61.79 kPa | 1.4756 ± 0.016 kg/m3 | 0.007376 ± 0.00083 mPa·s
298.14 K, 61.8 kPa | 1.4758 ± 0.016 kg/m3 | 0.007378 ± 0.00083 mPa·s
298.14 K, 82.37 kPa | 1.9794 ± 0.017 kg/m3 | 0.007375 ± 0.00083 mPa·s
298.14 K, 82.38 kPa | 1.9797 ± 0.017 kg/m3 | 0.007372 ± 0.00083 mPa·s
298.14 K, 102.9 kPa | 2.4887 ± 0.017 kg/m3 | 0.007369 ± 0.00083 mPa·s
298.14 K, 102.91 kPa | 2.4889 ± 0.017 kg/m3 | 0.00737 ± 0.00083 mPa·s
298.14 K, 175.29 kPa | 4.3414 ± 0.02 kg/m3 and 4.3415 ± 0.02 kg/m3 | 0.007347 ± 0.00083 mPa·s and 0.007346 ± 0.00083 mPa·s
298.14 K, 196.75 kPa | 4.9091 ± 0.021 kg/m3 | 0.007342 ± 0.00083 mPa·s
298.14 K, 196.77 kPa | 4.9096 ± 0.021 kg/m3 | 0.007341 ± 0.00083 mPa·s
298.15 K, 57.18 kPa | 1.3635 ± 0.016 kg/m3 and 1.3636 ± 0.016 kg/m3 | 0.007377 ± 0.00083 mPa·s and 0.007378 ± 0.00083 mPa·s
322.98 K, 450.39 kPa | 11.024 ± 0.031 kg/m3 | 0.007953 ± 0.00084 mPa·s
323 K, 450.69 kPa | 11.032 ± 0.031 kg/m3 | 0.007951 ± 0.00084 mPa·s
323.01 K, 450.89 kPa | 11.037 ± 0.031 kg/m3 | 0.007953 ± 0.00084 mPa·s
323.06 K, 392.1 kPa | 9.426 ± 0.029 kg/m3 | 0.007958 ± 0.00084 mPa·s
323.08 K, 392.5 kPa | 9.4391 ± 0.028 kg/m3 | 0.007954 ± 0.00084 mPa·s
323.09 K, 392.9 kPa | 9.4492 ± 0.029 kg/m3 | 0.00796 ± 0.00084 mPa·s
323.11 K, 380.74 kPa | 9.1236 ± 0.028 kg/m3 | 0.007958 ± 0.00084 mPa·s
323.11 K, 380.78 kPa | 9.1236 ± 0.028 kg/m3 | 0.007958 ± 0.00084 mPa·s
323.12 K, 330.12 kPa | 7.8092 ± 0.025 kg/m3 | 0.007967 ± 0.00084 mPa·s
323.12 K, 330.36 kPa | 7.8164 ± 0.025 kg/m3 | 0.007967 ± 0.00084 mPa·s
323.12 K, 380.76 kPa | 9.1272 ± 0.028 kg/m3 | 0.007958 ± 0.00084 mPa·s
323.13 K, 261.18 kPa | 6.0223 ± 0.022 kg/m3 | 0.00797 ± 0.00084 mPa·s
323.13 K, 261.21 kPa | 6.023 ± 0.022 kg/m3 | 0.007973 ± 0.00084 mPa·s
323.13 K, 301.54 kPa | 7.0807 ± 0.024 kg/m3 | 0.00797 ± 0.00084 mPa·s
323.13 K, 303.39 kPa | 7.1241 ± 0.024 kg/m3 | 0.007967 ± 0.00084 mPa·s
323.13 K, 305.32 kPa | 7.1762 ± 0.024 kg/m3 | 0.00797 ± 0.00084 mPa·s
323.13 K, 330.63 kPa | 7.8215 ± 0.025 kg/m3 | 0.007965 ± 0.00084 mPa·s
323.14 K, 58.2 kPa | 1.2744 ± 0.016 kg/m3 and 1.2766 ± 0.016 kg/m3 | 0.007994 ± 0.00084 mPa·s and 0.007988 ± 0.00084 mPa·s
323.14 K, 58.21 kPa | 1.2766 ± 0.016 kg/m3 | 0.00799 ± 0.00084 mPa·s
323.14 K, 66.38 kPa | 1.4575 ± 0.016 kg/m3 and 1.4567 ± 0.016 kg/m3 | 0.007991 ± 0.00084 mPa·s and 0.007994 ± 0.00084 mPa·s
323.14 K, 66.39 kPa | 1.4553 ± 0.016 kg/m3 | 0.007994 ± 0.00084 mPa·s
323.14 K, 90.51 kPa | 1.9979 ± 0.017 kg/m3 | 0.007987 ± 0.00084 mPa·s
323.14 K, 90.52 kPa | 1.9986 ± 0.017 kg/m3 | 0.00799 ± 0.00084 mPa·s
323.14 K, 112.93 kPa | 2.5057 ± 0.017 kg/m3 | 0.00799 ± 0.00084 mPa·s
323.14 K, 112.94 kPa | 2.5035 ± 0.017 kg/m3 | 0.007991 ± 0.00084 mPa·s
323.14 K, 112.96 kPa | 2.5057 ± 0.017 kg/m3 | 0.00799 ± 0.00084 mPa·s
323.14 K, 132.43 kPa | 2.9506 ± 0.018 kg/m3 | 0.007991 ± 0.00084 mPa·s
323.14 K, 132.44 kPa | 2.9492 ± 0.018 kg/m3 | 0.007989 ± 0.00084 mPa·s
323.14 K, 132.46 kPa | 2.9499 ± 0.018 kg/m3 | 0.007989 ± 0.00084 mPa·s
323.14 K, 184.24 kPa | 4.1645 ± 0.02 kg/m3 | 0.007979 ± 0.00084 mPa·s
323.14 K, 215.63 kPa | 4.9096 ± 0.021 kg/m3 | 0.007976 ± 0.00084 mPa·s
323.14 K, 215.65 kPa | 4.9111 ± 0.021 kg/m3 | 0.007976 ± 0.00084 mPa·s
323.14 K, 215.87 kPa | 4.9169 ± 0.021 kg/m3 | 0.007974 ± 0.00084 mPa·s
323.14 K, 261.28 kPa | 6.0252 ± 0.023 kg/m3 | 0.007968 ± 0.00084 mPa·s
323.15 K, 150.03 kPa | 3.3622 ± 0.018 kg/m3 | 0.007982 ± 0.00084 mPa·s
323.15 K, 150.04 kPa | 3.3622 ± 0.018 kg/m3 | 0.007982 ± 0.00084 mPa·s
323.15 K, 184.35 kPa | 4.1652 ± 0.02 kg/m3 | 0.00798 ± 0.00084 mPa·s
323.15 K, 184.36 kPa | 4.1667 ± 0.02 kg/m3 | 0.007979 ± 0.00084 mPa·s
348.03 K, 813.85 kPa | 19.576 ± 0.049 kg/m3 | 0.008652 ± 0.00084 mPa·s
348.03 K, 813.99 kPa | 19.581 ± 0.049 kg/m3 | 0.008648 ± 0.00084 mPa·s
348.03 K, 814.13 kPa | 19.586 ± 0.049 kg/m3 | 0.008649 ± 0.00084 mPa·s
348.12 K, 677.52 kPa | 15.682 ± 0.041 kg/m3 | 0.008631 ± 0.00084 mPa·s
348.12 K, 677.82 kPa | 15.691 ± 0.041 kg/m3 | 0.008631 ± 0.00084 mPa·s
348.13 K, 760.25 kPa | 17.999 ± 0.046 kg/m3 | 0.00864 ± 0.00084 mPa·s
348.13 K, 760.34 kPa | 18.002 ± 0.046 kg/m3 | 0.008637 ± 0.00084 mPa·s
348.14 K, 93.82 kPa | 1.9124 ± 0.016 kg/m3 | 0.008599 ± 0.00084 mPa·s
348.14 K, 93.83 kPa | 1.9131 ± 0.016 kg/m3 | 0.008597 ± 0.00084 mPa·s
348.14 K, 293.19 kPa | 6.2173 ± 0.023 kg/m3 | 0.008602 ± 0.00084 mPa·s
348.14 K, 293.73 kPa | 6.2296 ± 0.023 kg/m3 | 0.008602 ± 0.00084 mPa·s
348.14 K, 618.24 kPa | 14.097 ± 0.037 kg/m3 | 0.008621 ± 0.00084 mPa·s
348.14 K, 618.34 kPa | 14.099 ± 0.037 kg/m3 | 0.008628 ± 0.00084 mPa·s
348.15 K, 63.28 kPa | 1.2845 ± 0.016 kg/m3 | 0.008588 ± 0.00084 mPa·s
348.15 K, 63.3 kPa | 1.286 ± 0.016 kg/m3 | –
